pIC50: −log10 of the molar value. Bounds are passed on as bounds.

One test concerns the target T1, Human CARM1 (PRMT4) (Homo sapiens, UniProt Q86X55).
T1 construct: Flag-CARM1-His was eluted with 200 ug/ml FLAG peptide in buffer A; made in house; host or cells: HEK 293F cells (BacMam virus, pFastBacMam)
T1 sequence (Q86X55 with tags, fused parts or gaps isoform Q86X55-1): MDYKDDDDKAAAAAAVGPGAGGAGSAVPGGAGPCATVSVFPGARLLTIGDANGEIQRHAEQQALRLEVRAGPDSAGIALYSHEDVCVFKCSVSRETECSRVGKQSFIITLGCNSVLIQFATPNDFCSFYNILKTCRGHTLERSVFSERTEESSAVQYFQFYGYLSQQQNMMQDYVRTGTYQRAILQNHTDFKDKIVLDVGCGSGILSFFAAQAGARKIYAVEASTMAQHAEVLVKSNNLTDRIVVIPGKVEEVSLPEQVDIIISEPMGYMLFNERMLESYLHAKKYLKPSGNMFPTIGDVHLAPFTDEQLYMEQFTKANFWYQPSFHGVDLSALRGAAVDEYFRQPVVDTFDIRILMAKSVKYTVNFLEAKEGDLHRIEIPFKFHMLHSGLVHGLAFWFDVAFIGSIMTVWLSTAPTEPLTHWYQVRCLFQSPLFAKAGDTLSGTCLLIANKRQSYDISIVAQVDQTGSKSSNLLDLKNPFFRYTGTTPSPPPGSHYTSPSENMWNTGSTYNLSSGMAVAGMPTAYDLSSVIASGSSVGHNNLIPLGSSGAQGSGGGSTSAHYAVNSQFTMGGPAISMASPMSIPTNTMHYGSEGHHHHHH
Briefly: CARM1 biochemical assay (3H-SAM Flashplate, peptide substrate). The gist of the method:
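Methylation of a biotin-tagged H3 residues 16-30 peptide by recombinant CARM1 tracked via 3H-SAM incorporation, read as scintillation counts after streptavidin Flashplate capture. Compound and enzyme sat 30 min at room temperature first; unlabelled SAM at 300 uM final stopped the reaction. IC50 from Hill fits of % inhibition normalised to SAH and DMSO controls.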

Another test addresses T2, Full-length human PRMT6 (Homo sapiens, UniProt Q96LA8).
T2 construct: Flag-PRMT6-His was eluted with 200 ug/ml FLAG peptide in the same buffer; made in house; host or cells: HEK 293F cells (BacMam virus, pFastBacMam)
Briefly: PRMT6 biochemical assay (3H-SAM Flashplate, peptide substrate). A digest of the protocol: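 Flag-PRMT6-His from baculovirus-infected cells, preincubated with compound 30 min at room temperature, then SAM/3H-SAM and biotinylated H4 36-50 peptide added; 20 mM Bicine pH 7.6, TCEP, BSG, Tween 20. Quenched with cold SAM, captured on streptavidin Flashplates; % inhibition from SAH/DMSO controls, 3- or 4-parameter IC50 fit.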

T2 sequence (Q96LA8 with tags, fused parts or gaps): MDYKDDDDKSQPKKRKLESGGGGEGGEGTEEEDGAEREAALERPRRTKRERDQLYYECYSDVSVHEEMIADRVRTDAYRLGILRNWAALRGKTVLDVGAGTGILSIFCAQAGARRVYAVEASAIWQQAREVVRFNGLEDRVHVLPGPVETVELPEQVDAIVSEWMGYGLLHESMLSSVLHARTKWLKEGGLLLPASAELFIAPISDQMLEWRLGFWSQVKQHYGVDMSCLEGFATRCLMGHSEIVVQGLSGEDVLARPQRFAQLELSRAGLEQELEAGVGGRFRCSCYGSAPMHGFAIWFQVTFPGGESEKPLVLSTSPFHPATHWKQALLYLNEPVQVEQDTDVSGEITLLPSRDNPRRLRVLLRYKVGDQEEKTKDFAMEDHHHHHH

As usually defined, the pIC50 is the negative decadic logarithm of the IC50, by convention in mol/L. Read a low pIC50 as a high IC50. `CN(CCN)Cc1c[nH]nc1-c1ccc(C(F)(F)F)cc1C(F)(F)F` [Compound 85]: the pIC50 at Human CARM1 (PRMT4) is < 5.00; on Full-length human PRMT6, 6.00 to 7.00.

Consider `CNCCN(C)Cc1cn(CCC(O)CO)nc1-c1ccc(F)cc1` (stereo not shown) [Compound 59], for which the results for the pIC50 against Human CARM1 (PRMT4) and on Full-length human PRMT6 were 5.00 to 5.52 and 6.00 to 7.00, respectively.

On to `CN(CCN)Cc1c[nH]nc1-c1ccc(C(F)(F)F)cc1` [Compound 92], for which the pIC50 is 6.00 to 7.00 against Human CARM1 (PRMT4) and > 7.00 against Full-length human PRMT6.

Turning to `CN(CCN)Cc1n[nH]cc1-c1ccc(F)cc1` [Compound 69], the pIC50 on Human CARM1 (PRMT4) was 5.00 to 5.52; against Full-length human PRMT6, > 7.00.

As to `CNCCN(C)Cc1c[nH]nc1-c1ccc(C(=O)c2ccccc2)cc1` [Compound 45], the negative logarithm of the IC50 (pIC50) at Human CARM1 (PRMT4) and against Full-length human PRMT6 was > 7.00 in each case.

For the compound `NCCN(Cc1c[nH]nc1-c1ccc(F)cc1)C1CC1` [Compound 78], the pIC50 on Human CARM1 (PRMT4) is < 5.00; on Full-length human PRMT6, > 7.00.

Turning to `CNCCN(C)Cc1c[nH]nc1-c1ccc2ccccc2c1` [Compound 58], the negative logarithm of the IC50 (pIC50) against Human CARM1 (PRMT4) was 6.00 to 7.00; against Full-length human PRMT6 it was > 7.00.

In the case of `CNCCN(C)Cc1c[nH]nc1-c1ccc(OC)cc1OC` [Compound 55], the pIC50 on Human CARM1 (PRMT4) is 5.00 to 5.52; against Full-length human PRMT6 it was > 7.00.

(Values after US9346761B2, “Arginine methyltransferase inhibitors and uses thereof” (Epizyme, Inc., priority 2013, dated 2016).)
